From the supplement of paper PMC12420376

Columns and labels:
KURAMOCHI = assay: drug sensitivity score (DSS2) on cancer cell count; higher = more sensitive; extreme values may be limits of the assay; settings: 72 h
Outline: (§1)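 Ovarian cancer cells were grown alone or in 1:1 direct co-culture with lung or skin fibroblasts. They were plated onto 384-well plates pre-spotted acoustically with 528 approved and investigational compounds at 5 concentrations, then treated for 72 h. Cells were fixed, immunostained for CK8/18 with Hoechst, and imaged at 10× (4 fields) to count cancer cells. A drug sensitivity score (DSS2) was derived in Breeze from 4-parameter logistic fits, with screen quality checked by Z'.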

OVCAR8 = assay: as above; settings: 72 h
Outline: as §1

[1] = co-cultured fibroblast: BJHTERT
[2] = co-cultured fibroblast: none (monoculture)

| SMILES | drug sensitivity score (KURAMOCHI; [1]) | drug sensitivity score (KURAMOCHI; co-cultured fibroblast: WI38) | drug sensitivity score (KURAMOCHI; [2]) | drug sensitivity score (OVCAR8; [1]) | drug sensitivity score (OVCAR8; co-cultured fibroblast: WI38) | drug sensitivity score (OVCAR8; [2]) |
| --- | --- | --- | --- | --- | --- | --- |
| CC(C)(C)C[C@@H]1N[C@@H](C(=O)N[C@H]2CC[C@H](O)CC2)[C@H](c2cccc(Cl)c2F)[C@]12C(=O)Nc1cc(Cl)ccc12 | 0 DSS | 0.1 DSS | 0 DSS | 2.5 DSS | 0 DSS | 0 DSS |
| CC(C)(C)c1cc(NC(=O)Nc2ccc(Oc3ccnc4[nH]c(=O)cnc34)cc2F)n(-c2ccccc2)n1 | 10 DSS | 6.1 DSS | 7 DSS | 6.6 DSS | 3.4 DSS | 4.6 DSS |
| CC(C)Oc1ccc(C(=O)N[C@H](CNC(=O)CN(C)C)Cc2ccc(-c3cn4cccc([C@H](C)O)c4n3)cc2)cc1Cl | 18.1 DSS | 22.6 DSS | 22.8 DSS | 18.3 DSS | 14.2 DSS | 16.6 DSS |
| CCOc1ccn(-c2ccc(F)cc2)c(=O)c1C(=O)Nc1ccc(Oc2ccnc(N)c2Cl)c(F)c1 | 0.6 DSS | 0 DSS | 0 DSS | 0 DSS | 0 DSS | 0 DSS |
| CC[C@@H]1[C@H](F)C(=O)N[C@@H]1COc1nccc2cc(C(N)=O)c(OC)cc12 | 3.7 DSS | 1.8 DSS | 1.9 DSS | 2.4 DSS | 10.1 DSS | 4 DSS |
| CCc1cncnc1N1CCN(Cc2nc3ccc(C(F)(F)F)cc3[nH]2)CC1 | 1 DSS | 0 DSS | 2.1 DSS | 1.3 DSS | 0 DSS | 2.4 DSS |
| CCn1c(-c2nonc2N)nc2c(C#CC(C)(C)O)ncc(OC[C@H]3CCCNC3)c21 | 4.3 DSS | 6.1 DSS | 3.9 DSS | 0.2 DSS | 1.1 DSS | 0.4 DSS |
| CCn1c(-c2nonc2N)nc2cnc(Oc3cccc(NC(=O)c4ccc(OCCN5CCOCC5)cc4)c3)cc21 | 4.2 DSS | 5.2 DSS | 4.2 DSS | 10.9 DSS | 31.2 DSS | 18.4 DSS |
| CCn1c(C(=O)N(C2CC2)C2CC2)cc2c3c(ncn3C)c(Nc3cc(C)n(C)n3)nc21 | 3 DSS | 1.5 DSS | 0 DSS | 0 DSS | 1.1 DSS | 1.3 DSS |
| CCn1cc(-c2ccnc3[nH]c(-c4cccc(CN(C)C)c4)cc23)c(-c2ccc(NC(=O)N(C)C)cc2)n1 | 13.7 DSS | 15.5 DSS | 14.2 DSS | 12.3 DSS | 4.4 DSS | 10 DSS |
| CN(C)CC#Cc1ccc(OCCCc2sc(N3CCc4cccc(C(=O)Nc5nc6ccccc6s5)c4C3)nc2C(=O)O)c(F)c1 | 4.1 DSS | 6.1 DSS | 6.9 DSS | 4.3 DSS | 0 DSS | 0.7 DSS |
| CN(c1ncccc1CNc1nc(Nc2ccc3c(c2)CC(=O)N3)ncc1C(F)(F)F)S(C)(=O)=O | 11.5 DSS | 10.7 DSS | 12.6 DSS | 8.5 DSS | 6.6 DSS | 6.2 DSS |
| CN1CCN(C2CCC(n3cc(-c4ccc(Oc5ccccc5)cc4)c4c(N)ncnc43)CC2)CC1 (configuration not stated) | 19.5 DSS | 17.8 DSS | 20.5 DSS | 12.9 DSS | 11.4 DSS | 18.6 DSS |
| CNC(=O)c1ccc(C)c(-n2c(C)cc(OCc3ccc(F)cc3F)c(Br)c2=O)c1 | 0.6 DSS | 0 DSS | 14.9 DSS | 0.9 DSS | 0 DSS | 0 DSS |
| CNC(=O)c1ccccc1Nc1nc(Nc2ccc3c(c2OC)CCC[C@H](N2CCN(CCO)CC2)C3)ncc1Cl | 6.7 DSS | 2.2 DSS | 9.5 DSS | 7.3 DSS | 2.2 DSS | 11.1 DSS |
| CNS(=O)(=O)Nc1nccc(Cc2c(C)c3ccc(Oc4ncccn4)cc3oc2=O)c1F | 0 DSS | 0 DSS | 4.3 DSS | 0 DSS | 5.7 DSS | 0.2 DSS |
| CNc1nc(-c2ccc3c(N)n[nH]c3c2)cc(N2C[C@@H](C(=O)NC3CCCCC3)CC[C@H]2C)n1 | 3.2 DSS | 3.1 DSS | 6.5 DSS | 1.3 DSS | 0.1 DSS | 2.8 DSS |
| CNc1ncc2cc(-c3cc(NC(=O)NCCC(C)(C)C)c(F)cc3C)c(C)nc2n1 | 12.7 DSS | 10.2 DSS | 9.9 DSS | 13.1 DSS | 15.7 DSS | 14.7 DSS |
| CONC(=O)c1ccccc1Nc1cc(Nc2cc(C)nn2C(C)C)ncc1Cl | 3.3 DSS | 0 DSS | 0.2 DSS | 0.8 DSS | 4.2 DSS | 0 DSS |
| CO[C@@H](C)Cn1c(=O)n(C)c2cnc3ccc(-c4cncc(C(C)(C)O)c4)cc3c21 | 11.9 DSS | 10.9 DSS | 9.2 DSS | 9.6 DSS | 9.6 DSS | 9.8 DSS |
| COc1cc2ncnc(Oc3cccc(NC(=O)Nc4cc(C(C)(C)C(F)(F)F)on4)c3)c2cc1OC | 0 DSS | 1.4 DSS | 0 DSS | 0 DSS | 0 DSS | 0.8 DSS |
| COc1ccc(Cn2ccc3ccc(C(=O)NO)cc32)cc1 | 6.6 DSS | 2.3 DSS | 3.2 DSS | 2.5 DSS | 0.7 DSS | 3 DSS |
| COc1ccc2[nH]cc(/C=C3\C(=O)Nc4ccc(NC(=O)CCN5CCCCC5)cc43)c2c1 | 7.6 DSS | 9.6 DSS | 9.2 DSS | 4 DSS | 9.8 DSS | 8.6 DSS |
| C[C@@H](Oc1cc(-n2cnc3ccc(CN4CCN(C)CC4)cc32)sc1C(N)=O)c1ccccc1C(F)(F)F | 28 DSS | 27.7 DSS | 25.3 DSS | 42.4 DSS | 32.3 DSS | 31 DSS |
| C[C@@H](Oc1ccc2[nH]nc(/C=C/c3cnn(CCO)c3)c2c1)c1c(Cl)cncc1Cl | 5.7 DSS | 2.2 DSS | 6.7 DSS | 8.2 DSS | 9.2 DSS | 8 DSS |
| C[C@@H]1CN(CC(=O)Nc2ccc3c(c2)Cc2cccc(-c4cc(=O)cc(N5CCOCC5)o4)c2S3)C[C@H](C)O1 | 3.2 DSS | 0.2 DSS | 2.5 DSS | 7.6 DSS | 5.6 DSS | 0.7 DSS |
| C[C@@]1(C(=O)Nc2ccc(F)nc2)CCCN1c1nc(Nc2cc(C3CC3)n[nH]2)c2cccn2n1 | 13.3 DSS | 5.5 DSS | 10.8 DSS | 11.6 DSS | 13 DSS | 14 DSS |
